# Calls of active or inactive are those of the source. No cut-off for these calls is given here.
# Key:
# MGC-803 = test: Antiproliferative activity against human MGC803 cells after 48 hrs by MTT assay; type: functional, cell-based; conditions: MGC-803, 48 h
# HepG2 [1] = test: cells; conditions: Homo sapiens, HepG2, 48 h
# HeLa = test: cells; conditions: Homo sapiens, 48 h
# H22 [2] = test: Antitumor activity against mouse H22 cells implanted in mouse assessed as tumor growth inhibition at 100 mg/kg, ip or ig qd administered for 10 consecutive days measured after 24 hrs post last dose relative to control; type: functional; conditions: read-out: TGI
# HepG2 [3] = test: Synergistic upregulation of vementin protein levels in human HepG2 cells at 5 ug/ml after 48 hrs in presence of sorafenib by Western blot analysis; type: functional, cell-based
# H22 [4] = test: Synergistic antitumor activity against mouse H22 cells implanted in mouse assessed as tumor growth inhibition at 50 mg/kg, ip or ig qd administered for 10 consecutive days measured after 24 hrs post last dose in presence of sorafenib relative to control; type: functional; conditions: read-out: TGI
# HepG2 [5] = test: Synergistic downregulation of C-myc protein levels in human HepG2 cells at 5 ug/ml after 48 hrs in presence of sorafenib by Western blot analysis; type: functional, cell-based
# H22 [6] = test: Antitumor activity against mouse H22 cells implanted in mouse assessed as tumor growth inhibition at 50 mg/kg, ip or ig qd administered for 10 consecutive days measured after 24 hrs post last dose relative to control; type: functional; conditions: read-out: TGI
# HepG2 [7] = test: Downregulation of Ki67 protein levels in human HepG2 cells after 48 hrs by Western blot analysis; type: functional, cell-based
# HepG2 [8] = test: Synergistic downregulation of cyclin D1 protein levels in human HepG2 cells at 5 ug/ml after 48 hrs in presence of sorafenib by Western blot analysis; type: functional, cell-based
# HepG2 [9] = test: Downregulation of C-myc protein levels in human HepG2 cells after 48 hrs by Western blot analysis; type: functional, cell-based
# HepG2 [10] = test: Downregulation of cyclin D1 protein levels in human HepG2 cells after 48 hrs by Western blot analysis; type: functional, cell-based
# HepG2 [11] = test: Synergistic downregulation of Ki67 protein levels in human HepG2 cells at 5 ug/ml after 48 hrs in presence of sorafenib by Western blot analysis; type: functional, cell-based
# HepG2 [12] = test: Synergistic downregulation of beta-catenin protein levels in human HepG2 cells at 5 ug/ml after 48 hrs in presence of sorafenib by Western blot analysis; type: functional, cell-based
# HepG2 [13] = test: Upregulation of vimentin protein levels in human HepG2 cells at 2.5 to 10 ug/ml after 48 hrs by Western blot analysis; type: functional, cell-based
# HepG2 [14] = test: Downregulation of beta-Catenin protein levels in human HepG2 cells after 48 hrs by Western blot analysis; type: functional, cell-based
# HepG2 [15] = test: Cell cycle arrest in human HepG2 cells assessed as decrease in accumulation of cells at S phase at 4 ug/ml after 48 hrs by propidium iodide staining-based flow cytometric analysis; type: functional
# H22 [16] = test: Antitumor activity against mouse H22 cells implanted in mouse assessed as tumor growth inhibition at 50 mg/kg, ip qd administered for 10 consecutive days measured after 24 hrs post last dose relative to control; type: functional; conditions: read-out: TGI
# HepG2 [17] = test: Upregulation of vimentin protein levels in human HepG2 cells at 4 ug/ml after 48 hrs by Western blot analysis; type: functional, cell-based
# HepG2 [18] = test: Cell cycle arrest in human HepG2 cells assessed as increase in accumulation of cells at G0/G1 phase at 4 ug/ml after 48 hrs by propidium iodide staining-based flow cytometric analysis; type: functional
smiles,measurement,setting,value
COc1cc(NC(=O)c2cccnc2)c2c(c1O)-c1c(OC)c(OC)cc3c1[C@H](C2)N(C)CC3,IC50,MGC-803,34.7 µM
same,IC50,HepG2 [1],69.8 µM
same,IC50,HeLa,49.6 µM
COc1cc(NC(=O)c2ccc(Cl)c(C(F)(F)F)c2)c2c(c1O)-c1c(OC)c(OC)cc3c1[C@H](C2)N(C)CC3,IC50,MGC-803,21.9 µM
same,IC50,HepG2 [1],21.5 µM
same,IC50,HeLa,16.6 µM
COc1cc(NC(=O)Nc2ccc(N3CCC(CN)CC3)c(C(F)(F)F)c2)c2c(c1O)-c1c(OC)c(OC)cc3c1[C@H](C2)N(C)CC3,inhibition in vivo at 100 mg/kg,H22 [2],73.8%
same,Activity,HepG2 [3],Active
same,IC50,MGC-803,11.1 µM
same,inhibition in vivo at 50 mg/kg,H22 [4],66.5%
same,Activity,HepG2 [5],Active
same,inhibition in vivo at 50 mg/kg,H22 [6],27.2%
same,Activity,HepG2 [7],Dose-dependent effect
same,Activity,HepG2 [8],Active
same,Activity,HepG2 [9],Dose-dependent effect
same,Activity,HepG2 [10],Dose-dependent effect
same,IC50,HepG2 [1],7.51 µM
same,Activity,HepG2 [11],Active
same,Activity,HepG2 [12],Active
same,IC50,HeLa,6.32 µM
same,Activity,HepG2 [13],Active
same,Activity,HepG2 [14],Dose-dependent effect
COc1cc2c3c(c1O)-c1c(ccc(OC)c1OC)C[C@@H]3N(C)CC2 [CORYDINE],IC50,MGC-803,> 200 µM
same,IC50,HepG2 [1],> 200 µM
same,IC50,HeLa,> 200 µM
COc1cc(NC(=O)Nc2ccc(C)cc2)c2c(c1OC(=O)Nc1ccc(C)cc1)-c1c(OC)c(OC)cc3c1[C@H](C2)N(C)CC3,IC50,MGC-803,25.6 µM
same,IC50,HepG2 [1],16.1 µM
same,IC50,HeLa,19.1 µM
COc1cc(NC(=O)c2cc(Cc3n[nH]c(=O)c4ccccc34)ccc2F)c2c(c1O)-c1c(OC)c(OC)cc3c1[C@H](C2)N(C)CC3,IC50,MGC-803,27.2 µM
same,IC50,HepG2 [1],30.2 µM
same,IC50,HeLa,29.6 µM
COc1cc(NC(=O)Nc2ccc(F)cc2)c2c(c1OC(=O)Nc1ccc(F)cc1)-c1c(OC)c(OC)cc3c1[C@H](C2)N(C)CC3,IC50,MGC-803,25.1 µM
same,IC50,HepG2 [1],26.7 µM
same,IC50,HeLa,26.8 µM
CCC(=O)NCC1CCN(c2ccc(NC(=O)Nc3cc(OC)c(O)c4c3C[C@H]3c5c(cc(OC)c(OC)c5-4)CCN3C)cc2C(F)(F)F)CC1,IC50,MGC-803,20.4 µM
same,IC50,HepG2 [1],20.7 µM
same,IC50,HeLa,32.5 µM
COc1cc(NC(=O)Nc2ccccc2C)c2c(c1OC(=O)Nc1ccccc1C)-c1c(OC)c(OC)cc3c1[C@H](C2)N(C)CC3,IC50,MGC-803,22.8 µM
same,IC50,HepG2 [1],31.4 µM
same,IC50,HeLa,43.9 µM
COc1cc(NC(=O)Nc2ccc(C(F)(F)F)cc2)c2c(c1OC(=O)Nc1ccc(C(F)(F)F)cc1)-c1c(OC)c(OC)cc3c1[C@H](C2)N(C)CC3,IC50,MGC-803,39.3 µM
same,IC50,HepG2 [1],44.1 µM
same,IC50,HeLa,47.7 µM
COc1cc(NC(=O)Nc2ccc(SC)cc2)c2c(c1O)-c1c(OC)c(OC)cc3c1[C@H](C2)N(C)CC3,IC50,MGC-803,47.8 µM
same,IC50,HepG2 [1],53.2 µM
same,IC50,HeLa,46.6 µM
COc1cc(NC(=O)Nc2ccc(C(F)(F)F)cc2)c2c(c1O)-c1c(OC)c(OC)cc3c1[C@H](C2)N(C)CC3,IC50,MGC-803,57.3 µM
same,IC50,HepG2 [1],45.9 µM
same,IC50,HeLa,49 µM
COc1ccc2c(c1O)-c1c(O)c(OC)cc3c1[C@H](C2)N(C)CC3 [CORYTUBERINE],IC50,MGC-803,> 200 µM
same,IC50,HepG2 [1],> 200 µM
same,IC50,HeLa,> 200 µM
COc1cc(NC(=O)Nc2ccccc2Cl)c2c(c1O)-c1c(OC)c(OC)cc3c1[C@H](C2)N(C)CC3,IC50,MGC-803,35.2 µM
same,IC50,HepG2 [1],36.7 µM
same,IC50,HeLa,36.9 µM
CCC(=O)NC1CCN(c2ccc(NC(=O)Nc3cc(OC)c(O)c4c3C[C@H]3c5c(cc(OC)c(OC)c5-4)CCN3C)cc2C(F)(F)F)CC1,IC50,MGC-803,32.5 µM
same,IC50,HepG2 [1],28.5 µM
same,IC50,HeLa,33.4 µM
COc1cc(NC(=O)/C=C/c2ccccc2)c2c(c1O)-c1c(OC)c(OC)cc3c1[C@H](C2)N(C)CC3,IC50,MGC-803,37.9 µM
same,IC50,HepG2 [1],63.4 µM
same,IC50,HeLa,74.5 µM
COc1cc(NC(=O)Nc2ccc(N3CCC(CNC(=O)OC(C)(C)C)CC3)c(C(F)(F)F)c2)c2c(c1O)-c1c(OC)c(OC)cc3c1[C@H](C2)N(C)CC3,IC50,MGC-803,23.2 µM
same,IC50,HepG2 [1],18.9 µM
same,IC50,HeLa,22.1 µM
COc1cc2c3c(c1O)-c1c(ccc(O)c1OC)C[C@@H]3N(C)CC2,IC50,MGC-803,124 µM
same,IC50,HepG2 [1],154 µM
same,IC50,HeLa,109 µM
COc1cc(NC(=O)c2ccccc2O)c2c(c1O)-c1c(OC)c(OC)cc3c1[C@H](C2)N(C)CC3,IC50,MGC-803,56.6 µM
same,IC50,HepG2 [1],75.4 µM
same,IC50,HeLa,62.1 µM
CNC(=O)c1cc(Oc2ccc(NC(=O)Nc3ccc(Cl)c(C(F)(F)F)c3)cc2)ccn1 [SORAFENIB],Activity,HepG2 [15],Active
same,inhibition in vivo at 50 mg/kg,H22 [16],55.8 to 56.5%
same,Activity,HepG2 [7],Dose-dependent effect
same,Activity,HepG2 [9],Dose-dependent effect
same,Activity,HepG2 [17],Active
same,Activity,HepG2 [10],Dose-dependent effect
same,Activity,HepG2 [14],Dose-dependent effect
same,Activity,HepG2 [18],Active
COc1cc(NC(=O)Nc2ccc(N3CCC(N)CC3)c(C(F)(F)F)c2)c2c(c1O)-c1c(OC)c(OC)cc3c1[C@H](C2)N(C)CC3,IC50,MGC-803,32.3 µM
same,IC50,HepG2 [1],28.6 µM
same,IC50,HeLa,33.7 µM
COc1cc(NC(=O)Nc2ccc(Cl)c(Cl)c2)c2c(c1O)-c1c(OC)c(OC)cc3c1[C@H](C2)N(C)CC3,IC50,MGC-803,30 µM
same,IC50,HepG2 [1],28.4 µM
same,IC50,HeLa,21.7 µM
COc1cc(NC(=O)Nc2ccc(N3CCC(NC(=O)OC(C)(C)C)CC3)c(C(F)(F)F)c2)c2c(c1O)-c1c(OC)c(OC)cc3c1[C@H](C2)N(C)CC3,IC50,MGC-803,28.7 µM
same,IC50,HepG2 [1],25.9 µM
same,IC50,HeLa,26.7 µM
COc1ccc2c(c1O)-c1c(OC)c(OC)cc3c1[C@H](C2)N(C)CC3 [ISOCORYDINE],IC50,MGC-803,> 200 µM
same,IC50,HepG2 [1],> 200 µM
same,IC50,HeLa,> 200 µM
COC1=CC(=O)c2cc3c4c(cc(OC)c(OC)c4c2C1=O)CCN3C,IC50,MGC-803,49.6 µM
same,IC50,HepG2 [1],40 µM
same,IC50,HeLa,31.3 µM
COc1cc(NC(=O)Nc2ccccc2Cl)c2c(c1OC(=O)Nc1ccccc1Cl)-c1c(OC)c(OC)cc3c1[C@H](C2)N(C)CC3,IC50,MGC-803,26.9 µM
same,IC50,HepG2 [1],17.2 µM
same,IC50,HeLa,27.1 µM
COc1cc(N)c2c(c1O)-c1c(OC)c(OC)cc3c1[C@H](C2)N(C)CC3,IC50,MGC-803,62.1 µM
same,IC50,HepG2 [1],51.1 µM
same,IC50,HeLa,44.1 µM
